# From ChEMBL document CHEMBL1201862, “PubChem BioAssay data set” (2004)
# Activity calls are given as the source filed them.
# Key:
# [1] = ZM109 Env clade C HIV-1 fusion inhibitors, dose response, HeLa effector, CEM target cells, luciferase, cherry-pick (AID 652058); type: functional, cell-based
# Interleukin-8 = Interleukin-8 (Homo sapiens, UniProt P10145); test: Dose Response confirmation of uHTS small molecule hits for cystic fibrosis induced NFkb Inhibitors in a PAF-induced IL8 counterscreen.; type: functional; conditions: read-out: IC50_Mean
# Interleukin-8, sequence (P10145 whole entry, the tested form may be a part): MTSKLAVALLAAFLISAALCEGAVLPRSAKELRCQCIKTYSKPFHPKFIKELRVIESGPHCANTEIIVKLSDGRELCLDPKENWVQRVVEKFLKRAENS
# [2] = off-target signal loss in HeLa-CEM21 co-culture – HeLa F-luc CTL cells, cherry-picked, counter-screen for HIV-1 Env fusion inhibitor project, dose response (AID 652040); type: functional, cell-based;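 also: potency for signal decrease marking cytotoxic or nonspecific inhibition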
# [3] = inhibitors of HIV Env-driven cell fusion, dose response, cherry-pick (AID 652057); type: functional, cell-based
# [4] = inhibitors of clade B AD8 Env fusion, dose response, cell-based, cherry-pick (AID 652062); type: functional;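 also: luciferase signal from cell-cell fusion driven by HIV-1 clade B AD8 Env; potency is for inhibitors of fusion seen as a drop in luminescence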
# Protein Tat = Protein Tat (Human immunodeficiency virus type 1 group M subtype B (isolate HXB2)(HIV-1), UniProt P04608); type: functional;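 also: tat binding to TAR RNA read out by fluorescence polarization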
# Protein Tat, sequence (P04608 whole entry): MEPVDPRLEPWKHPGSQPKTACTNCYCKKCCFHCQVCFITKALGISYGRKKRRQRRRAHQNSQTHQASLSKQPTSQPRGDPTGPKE
# Large T antigen = Large T antigen (Simian virus 40, UniProt P03070); type: functional, Betapolyomavirus macacae;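 also: Confirmatory-stage PubChem screen for compounds that inhibit SV40 T antigen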
# Large T antigen, sequence (P03070 whole entry): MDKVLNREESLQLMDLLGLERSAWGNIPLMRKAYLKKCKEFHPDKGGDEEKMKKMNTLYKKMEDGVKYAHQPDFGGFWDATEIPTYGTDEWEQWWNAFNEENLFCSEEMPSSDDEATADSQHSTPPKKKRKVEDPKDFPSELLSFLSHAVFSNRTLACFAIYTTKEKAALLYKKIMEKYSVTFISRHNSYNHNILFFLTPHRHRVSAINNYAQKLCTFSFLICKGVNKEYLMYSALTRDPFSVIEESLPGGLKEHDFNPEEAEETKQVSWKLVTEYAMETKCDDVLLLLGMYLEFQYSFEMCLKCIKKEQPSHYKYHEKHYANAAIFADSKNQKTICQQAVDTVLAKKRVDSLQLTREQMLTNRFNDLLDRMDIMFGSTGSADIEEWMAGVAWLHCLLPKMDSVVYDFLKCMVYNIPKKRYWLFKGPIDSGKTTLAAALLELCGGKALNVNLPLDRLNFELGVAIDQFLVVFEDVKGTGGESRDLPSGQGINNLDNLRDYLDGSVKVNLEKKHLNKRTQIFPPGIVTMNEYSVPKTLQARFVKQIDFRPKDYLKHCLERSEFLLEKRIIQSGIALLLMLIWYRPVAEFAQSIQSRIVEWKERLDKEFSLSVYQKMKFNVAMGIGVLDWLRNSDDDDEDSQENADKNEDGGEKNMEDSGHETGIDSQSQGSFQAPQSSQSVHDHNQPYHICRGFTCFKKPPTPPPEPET
# cells = type: functional, cell-based; conditions: HEK-CNG
# Galanin receptor type 3 = Galanin receptor type 3 (Homo sapiens, UniProt O60755); test: Fluorescence-based cell-based primary high throughput dose response assay to identify antagonists of the Galanin Receptor 3 (GalR3).; type: functional
# Galanin receptor type 3, sequence (O60755 whole entry): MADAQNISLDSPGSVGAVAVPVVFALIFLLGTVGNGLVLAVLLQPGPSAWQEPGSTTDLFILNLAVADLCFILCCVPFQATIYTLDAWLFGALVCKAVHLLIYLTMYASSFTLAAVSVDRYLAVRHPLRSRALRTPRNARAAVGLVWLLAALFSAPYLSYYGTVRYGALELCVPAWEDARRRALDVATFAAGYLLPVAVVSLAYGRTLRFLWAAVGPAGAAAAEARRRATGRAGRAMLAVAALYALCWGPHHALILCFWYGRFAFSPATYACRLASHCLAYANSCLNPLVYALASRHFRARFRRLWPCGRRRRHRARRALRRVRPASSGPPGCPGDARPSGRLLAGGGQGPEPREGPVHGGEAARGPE
# H9c2 = test: cells; type: functional, cell-based; conditions: Rattus norvegicus, H9c2, Myocardium;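 also: confirmatory concentration-response retest of ultra-high-throughput screening hits for modulation of myocardial damage; cell death induced by hydrogen peroxide oxidative stress; compound pretreatment for 60 min then peroxide exposure for 2 h; potency is for protecting the cells against peroxide damage rather than for killing them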
# [5] = human group III sPLA2 inhibitors, dose response, biochemical, QFRET, IC50 (AID 743457);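 also: green fluorescence rise as the enzyme cleaves BODIPY PC-A2 in liposomes; potency for inhibition of the enzyme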
# [6] = molecular target: T1, Long-chain-fatty-acid--AMP ligase FadD28 (Mycobacterium tuberculosis, UniProt P9WQ59); test: Fluorescence polarization aasay to screen for inhibitors that compete for the binding of FadD28 to a bisubstrate Measured in Biochemical System Using Plate Reader - 2147-01_Inhibitor_Dose_CherryPick_Activity.; type: functional, Mycobacterium tuberculosis H37Rv
# T1 sequence (P9WQ59 whole entry): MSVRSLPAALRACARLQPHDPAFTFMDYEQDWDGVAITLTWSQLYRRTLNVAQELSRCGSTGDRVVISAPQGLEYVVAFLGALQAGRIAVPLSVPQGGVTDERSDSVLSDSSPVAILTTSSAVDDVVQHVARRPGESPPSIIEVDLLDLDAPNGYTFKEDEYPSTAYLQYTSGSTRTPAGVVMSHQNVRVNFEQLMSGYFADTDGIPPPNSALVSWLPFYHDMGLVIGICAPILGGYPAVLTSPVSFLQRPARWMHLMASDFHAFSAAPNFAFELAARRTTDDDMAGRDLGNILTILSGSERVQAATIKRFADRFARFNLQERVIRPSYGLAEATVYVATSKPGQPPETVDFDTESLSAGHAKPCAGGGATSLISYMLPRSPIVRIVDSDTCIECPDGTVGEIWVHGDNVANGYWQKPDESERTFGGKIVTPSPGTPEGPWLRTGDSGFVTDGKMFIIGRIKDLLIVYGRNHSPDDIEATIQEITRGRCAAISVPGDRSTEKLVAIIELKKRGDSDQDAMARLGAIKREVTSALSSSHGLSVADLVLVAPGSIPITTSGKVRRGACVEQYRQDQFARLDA
# [7] = molecular target: T2, Oxysterols receptor LXR-beta (Homo sapiens, UniProt P55055); type: functional, cell-based;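 also: agonist activity at LXR measured by a cell-based luminescence readout across a dose range, run as a counterscreen for daf-12 agonists; HEK293 cells with Gal4-LXR fusion and GAL4-driven luciferase reporter; potency for activation of Gal4-LXR reporter so compounds are agonists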
# T2 sequence (P55055 whole entry): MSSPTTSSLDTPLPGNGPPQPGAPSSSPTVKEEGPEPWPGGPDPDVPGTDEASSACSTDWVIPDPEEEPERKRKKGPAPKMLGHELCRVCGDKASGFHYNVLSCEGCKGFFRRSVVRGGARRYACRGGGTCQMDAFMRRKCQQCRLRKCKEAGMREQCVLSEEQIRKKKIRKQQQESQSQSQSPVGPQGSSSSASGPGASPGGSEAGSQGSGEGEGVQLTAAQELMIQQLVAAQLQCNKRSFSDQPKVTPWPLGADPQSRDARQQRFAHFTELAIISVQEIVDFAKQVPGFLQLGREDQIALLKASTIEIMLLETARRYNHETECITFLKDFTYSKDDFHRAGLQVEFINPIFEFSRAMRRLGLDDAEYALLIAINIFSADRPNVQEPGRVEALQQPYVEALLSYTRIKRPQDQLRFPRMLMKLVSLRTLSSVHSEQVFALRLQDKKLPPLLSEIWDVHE
# [8] = molecular target: T3, Sentrin-specific protease 8 (Homo sapiens, UniProt Q96LD8); type: functional
# T3 sequence (Q96LD8 whole entry): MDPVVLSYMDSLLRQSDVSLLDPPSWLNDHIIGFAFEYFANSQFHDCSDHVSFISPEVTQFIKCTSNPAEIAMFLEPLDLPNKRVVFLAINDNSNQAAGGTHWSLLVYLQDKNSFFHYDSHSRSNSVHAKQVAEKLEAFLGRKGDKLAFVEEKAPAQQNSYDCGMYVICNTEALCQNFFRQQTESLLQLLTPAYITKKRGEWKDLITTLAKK
# [9] = cytotoxicity toward NIH3T3 fibroblasts, dose response, counter-screen, cell-based, ATP luminescence, mouse fibroblasts (AID 2010); type: functional;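 also: cells exposed to compound for about 90 hours before reading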
# [10] = molecular target: T3, Sentrin-specific protease 8; type: functional; remark: listed apart in the source
# [11] = inhibitors of intracellular T. cruzi replication, confirmation, NIH3T3 host cells, beta-gal luminescence (AID 2044); type: functional, cell-based;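 also: intracellular parasites grown in NIH/3T3 mouse fibroblasts as host cells; luminescent beta-galactosidase reporter signal from transgenic T. cruzi replicating inside host cells; inhibitors lower the luminescence signal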
# [12] = cytotoxicity in HEK-293T cells, dose response, cytotoxicity control for BCR NF-kB inhibitor project, luminescence, B-cell screen hits (AID 489021); type: functional, cell-based;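 also: HEK-293T cells carrying an NF-kB luciferase reporter; cells exposed to compound for about 14 hours before viability readout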
# [13] = molecular target: T4, Probable nicotinate-nucleotide adenylyltransferase (Staphylococcus aureus (strain N315), UniProt P65502); type: functional, Staphylococcus aureus subsp. aureus N315;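 as to IC50 Mean: confirmatory dose-response retesting of NadD inhibitor hits first found in an ultra-high-throughput screen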
# T4 sequence (P65502 whole entry): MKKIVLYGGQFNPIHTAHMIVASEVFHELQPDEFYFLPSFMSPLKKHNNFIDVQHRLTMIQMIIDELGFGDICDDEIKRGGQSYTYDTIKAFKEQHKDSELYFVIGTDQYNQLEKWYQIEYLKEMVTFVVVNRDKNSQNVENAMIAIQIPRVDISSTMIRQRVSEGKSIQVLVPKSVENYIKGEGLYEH
# [14] = growth suppression of PTEN-null colon cells, dose response, cell-based, HCT116 PTEN knockout (AID 1047); type: functional;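 also: HCT116 colon tumor cells with PTEN knocked out; cells exposed to compound for 60 hours before readout; potency for loss of cell viability measured by luminescence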
# [15] = molecular target: T4, Probable nicotinate-nucleotide adenylyltransferase; type: functional, Staphylococcus aureus subsp. aureus N315; conditions: read-out: IC50_Mean
# [16] = growth suppression of beta-catenin-knockout colon cells, dose response, cell-based, HCT116, human colon tumor (AID 1045); type: functional;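 also: HCT116 colon tumor cells with beta catenin knocked out; cells exposed to compound for 60 hours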
# HEK293 = test: inhibitors of LMP1-driven NF-kB reporter, dose response, cell-based, HEK293, luciferase, cherry-pick (AID 588343); type: functional; conditions: Homo sapiens
# [17] = molecular target: T5, Methionyl-tRNA synthetase, putative (Trypanosoma brucei brucei, UniProt Q38C91); type: functional, Trypanosoma brucei brucei strain 927/4 GUTat10.1
# T5 sequence (Q38C91 whole entry): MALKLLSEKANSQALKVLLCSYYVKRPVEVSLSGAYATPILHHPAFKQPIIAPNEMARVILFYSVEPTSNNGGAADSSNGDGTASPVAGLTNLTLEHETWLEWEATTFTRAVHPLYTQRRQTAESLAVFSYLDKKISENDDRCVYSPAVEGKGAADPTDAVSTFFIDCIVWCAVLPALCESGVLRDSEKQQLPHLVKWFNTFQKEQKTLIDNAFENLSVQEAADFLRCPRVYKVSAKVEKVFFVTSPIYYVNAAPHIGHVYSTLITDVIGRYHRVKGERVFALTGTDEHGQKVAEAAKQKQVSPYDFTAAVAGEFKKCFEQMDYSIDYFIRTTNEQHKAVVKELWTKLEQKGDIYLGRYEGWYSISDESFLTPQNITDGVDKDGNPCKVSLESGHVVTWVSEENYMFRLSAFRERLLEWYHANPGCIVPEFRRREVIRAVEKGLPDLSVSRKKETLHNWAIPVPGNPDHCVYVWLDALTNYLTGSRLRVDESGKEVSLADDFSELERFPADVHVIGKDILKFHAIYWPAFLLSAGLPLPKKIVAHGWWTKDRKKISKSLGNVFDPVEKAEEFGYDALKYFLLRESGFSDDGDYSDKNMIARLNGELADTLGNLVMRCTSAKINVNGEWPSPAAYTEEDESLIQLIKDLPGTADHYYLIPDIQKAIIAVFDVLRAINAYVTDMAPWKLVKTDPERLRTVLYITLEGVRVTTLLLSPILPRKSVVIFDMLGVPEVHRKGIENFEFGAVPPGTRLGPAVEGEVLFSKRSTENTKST
# [18] = molecular target: T5, Methionyl-tRNA synthetase, putative; type: functional, Trypanosoma brucei brucei strain 927/4 GUTat10.1; remark: listed apart in the source
# [19] = Counterscreen for inhibitors of Trypanosoma brucei methionyl tRNA synthetase (MetRS): Luminescence-based cell-based high throughput dose response assay to identify compounds that are cytotoxic to Jurkat human T lymphocyte cells.; type: functional
smiles,measurement,setting,value
COc1ccc(C2=Nn3c(nnc3-c3ccncc3)SC2)cc1,AC50,[1],1.13 µM (active)
same,IC50,Interleukin-8,40.8 µM (inactive)
same,AC50,[2],2.34 µM (active)
same,AC50,[3],2.02 µM (active)
same,AC50,[4],1.03 µM (active)
O=C(CN1CCN(S(=O)(=O)c2ccc(F)cc2)CC1)c1ccc(O)c(O)c1,IC50,Protein Tat,> 100 µM (active)
same,IC50,Large T antigen,6.55 µM (active)
CNC(=O)NC(=O)CSc1nnc(-c2ccc(F)cc2)n1CC1CCCO1 (centres undefined),EC50,cells,> 29.9 µM (inactive)
same,IC50,Galanin receptor type 3,> 29.9 µM (inactive)
CCOC(=O)N1CCN(S(=O)(=O)c2ccc(C(=O)NNc3nc4c(C)cccc4s3)cc2)CC1,IC50,H9c2,14.2 µM (active)
same,IC50,[5],25.9 µM (inactive)
same,AC50,[6],22.1 µM (active)
Cc1ccc2nc(-c3ccccn3)oc2c1,EC50,[7],> 67.6 µM (inactive)
CCc1ccc(/C=C(/C#N)C(N)=S)cc1,IC50,[5],> 122 µM (inactive)
Cc1ccc(Sc2cc(NCCCO)c([N+](=O)[O-])c3nonc23)cc1,IC50,[8],18.1 µM (active)
same,EC50,[9],> 60 µM (not active)
same,IC50,[10],23.3 µM (active)
same,EC50,[11],2.2 µM (active)
same,IC50,[12],> 80 µM (inactive)
O=C(NC(=S)Nc1cc(-c2nc3ccccc3[nH]2)ccc1Cl)c1ccc2c(c1)OCO2,IC50,[13],21.1 µM (active)
same,EC50,[14],1.53 µM (active)
same,IC50,[15],58.9 µM (active)
same,EC50,[16],2.23 µM (active)
Cc1cccc(Nc2[nH]nc(C)c2[N+](=O)[O-])c1,EC50,[7],> 67.5 µM (inactive)
CC(=O)c1c(C)n(C2CCCCC2)c2ccc(O)cc12,IC50,Interleukin-8,> 79 µM (inactive)
same,AC50,HEK293,3.23 µM (active)
COc1ccc(CNC(=O)CSc2n[nH]c3c4ccccc4nc-3n2)cc1,IC50,[17],1.54 µM (active)
same,IC50,[18],4.39 µM (active)
same,IC50,[19],83.3 µM (inactive)
